The values below come from patent US20220273690A1, “Edible Formulations Based on Active Ingredients and Arginine” (GRAAL S.R.L., priority 2019, published 2022).

As usually defined, the pKa is the pH at which an ionisable group is half protonated.

For series [1] the following is noted: cited from earlier work.
For series [2] the following is noted: cited from earlier work. This is another data set of the same source.
The nature of series [3]: Neutralization of an aqueous solution of SAM-e tosylate with buffering agents to pH 7. The series is classed as physicochemical. Particulars: for Final pH: SAMe tosylate 400 mg/100 mL after addition of the neutralizing agent; for Initial pH / Stabilization time: SAMe tosylate 400 mg/100 mL; for Initial pH: before addition of the neutralizing agent; for Neutralizing agents added amount: added to SAMe tosylate 400 mg/100 mL until neutralization. The procedure: (§1) After measuring the pH, the solution was gradually added with buffering substance until neutralization and a pH 7 value were reached. As it can be seen from the table below (Table 9), the amount of Lysine and Potassium Citrate tribasic appear to be excessive to consider their use in commercial pharmaceutical forms. More precisely, from the table it can be noted that 15.4 g of Lysine fail to bring the SAMe solution to neutralization (the pH value remains 4).
SAMe tosilate concentration: 400 mg/100 mL

The nature of series [4]: Neutralization of aqueous solutions of other acid active ingredients with L-Arginine. The series is classed as physicochemical. Particulars: aqueous solution containing 1 g of the active ingredient.
Text: as §1
Based on the excellent neutralization results obtained with L-Arginine, the same method was used to analyze the amount of L-Arginine necessary to neutralize a solution including other acid active ingredients (results below): • An aqueous solution containing 1 g of N-Acetyl-Cysteine is neutralized with 1.086 g of L-Arginine • An aqueous solution containing 1 g of L-Acetyl-Carnitine is neutralized with 0.736 g of L-Arginine

Values after ≈ are worked out from the molar mass of the structure shown.

`O=C(O)CCCC[C@@H]1CCSS1` (racemic) [Lipoic acid]: in series [1], the pKa was 4.52.
Consider `CC(=O)Oc1ccccc1C(=O)O` [Acetylsalicylic acid], for which the Solubility in water in series [2] was 1.46 g/L (≈ 8.1 mM).
Turning to `N=C(N)NCCC[C@H](N)C(=O)O` [Arginine], in series [3], the “Final pH” value is reported as 7.0, the “Initial pH” value was 2.08 and the “Neutralizing agents added amount” value was found to be 375 mg.
Consider `O=C1O[C@H]([C@@H](O)CO)C(O)=C1O` [Ascorbic Acid], for which the pKa in series [1] is listed as 4.36.
Take `N[C@@H](CC(=O)O)C(=O)O` [Aspartic Acid]: the pKa in series [1] is recorded as 1.7.
For `N[C@@H](CCC(=O)O)C(=O)O` [Glutamic acid], in series [1], the pKa is given as 1.88.
Turning to `CC(C)(O)CC(=O)O` [Hydroxy-methyl-butyrate, 3-hydroxy-3-methylbutyric acid], in series [2], the Solubility in water is recorded as 15 g/L (≈ 127 mM). Besides, the pKa in series [1] is given as 4.4.
As for `CC(=O)O[C@H](CC(=O)[O-])C[N+](C)(C)C` [L-Acetyl Carnitine], in series [2], the Solubility in water is recorded as 142 g/L (≈ 699 mM). The “Amount of L-Arginine needed to neutralize” value in series [4] is given as 0.736 g. Also, the pKa in series [1] is recorded as 4.09.
Take `C[N+](C)(C)C[C@H](O)CC(=O)[O-]` [Levocarnitine]: in series [2], the Solubility in water is given as 5.33 g/L (≈ 33.1 mM). The pKa in series [1] is 4.2.
With `[O]=[Mg]` [Light magnesium oxide], in series [3], the “Final pH” value was determined as 7.1, the “Initial pH” value turned out to be 2.08 and the “Neutralizing agents added amount” value is 44.91 mg.
Turning to `NCCCC[C@H](N)C(=O)O` [Lysine], in series [3] (SAMe solution, neutralization not reached), the “Amount of neutralizing agent added” value is on record as 15.4 g. In series [3], the “Final pH” value was 4, the “Initial pH” value is given as 2.08 and the “Neutralizing agents added amount” value turned out to be 15402 mg.
On to `CC(=O)N[C@@H](CS)C(=O)O` [N-Acetyl Cysteine], for which the Solubility in water in series [2] is 5.09 g/L (≈ 31.2 mM). The “Amount of L-Arginine needed to neutralize” value in series [4] is listed as 1.086 g.
For `O=C([O-])CC(O)(CC(=O)[O-])C(=O)[O-].[K+].[K+].[K+]` [Potassium citrate tribasic], in series [3], the Stabilization time is below 3 min, the “Final pH” value was 7.0, the “Initial pH” value is reported as 2.10 and the “Neutralizing agents added amount” value was determined as 14943 mg.
As to `CC(=O)SC[C@H](NC(=O)CC[C@H](N)C(=O)O)C(=O)NCC(=O)O` [S-acetyl-L-glutatione], the pKa in series [1] is listed as 1.75.
For the compound `C[S+](CC[C@H](N)C(=O)[O-])C[C@H]1O[C@@H](n2cnc3c(N)ncnc32)[C@H](O)[C@@H]1O` (stereo partly drawn) [SAMe, S-Adenosyl-l-methionine], the Solubility in water in series [2] was 1.19 g/L (≈ 2.99 mM). For the same compound, the pKa in series [1] is 1.7.
Regarding `O=C([O-])O.[Na+]` [Sodium bicarbonate], in series [3], the Stabilization time is below 3 min, the “Final pH” value was 7.0, the “Initial pH” value is given as 2.08 and the “Neutralizing agents added amount” value came to 690 mg.
With `O=C([O-])[O-].[Na+].[Na+]` [Sodium carbonate], in series [3], the Stabilization time is below 3 min, the “Final pH” value came to 7.0, the “Initial pH” value is on record as 2.10 and the “Neutralizing agents added amount” value turned out to be 200 mg.
Regarding `O=P([O-])([O-])[O-].[Na+].[Na+].[Na+]` [Sodium phosphate tribasic], in series [3], the Stabilization time is below 3 min, the “Final pH” value is on record as 7.0, the “Initial pH” value is 2.09 and the “Neutralizing agents added amount” value was found to be 510 mg.
